Results from patent publication US20240376149A1, “Novel Modulators of GABABR1a” (VIB VZW, priority 2021, published 2024).
Where a SMILES comes first, the peptide text is derived from it. Where no end group is shown, it is not given here. [ ]: non-standard residue; d: D form. hCha = N[C@@H](CCC1CCCCC1)C(=O)O; F72 = not defined here

Key:
[1] = biological target: T1, sushi domain 1 (SD1) of GABABR1a (Homo sapiens, UniProt Q9UBS5); assay: Isothermal titration calorimetry (ITC) direct binding assay; details: for ITC Kd: peptide titrated into Sushi-1 protein in PBS
T1 construct: The synthetic gene encoding for residues 26-96 of the Sushi1 protein was cloned into a pFloat-SUMO vector; His-SUMO (with 3C protease site) (N, cleaved yes); made in house; host or cells: E. coli BL21(DE3)
Description: In contrast to the FP assay, the isothermal titration calorimetry (ITC) assay is a direct binding assay.
For biophysical and structural biology purposes the Sushi1 protein was expressed in a bacterial expression system. The synthetic gene encoding for residues 26-96 of the Sushi1 protein was cloned into a pFloat-SUMO vector, generating a His-tagged SUMO-Sushi1 fusion protein. The construct also contained a 3C protease cleavage site to remove the His-SUMO-tag. The pFloat-SUMO-Sushi1 plasmid was transformed in BL21(DE3) cells and plated on kanamycin ([…]) containing LB agar plates. A small LB culture, supplemented with […] kanamycin, was inoculated with a single colony of BL21(DE3)(pFloat-SUMO-Sushi1) and grown overnight at 37° C. 1 liter LB cultures were subsequently inoculated with 20 ml of this preculture and grown at 37° C. until OD600 reached 0.8. At this point protein expression was induced using 0.5 mM isopropyl β-D-1-thiogalactopyranoside (IPTG). Cells were incubated further overnight at 20° C. and subsequently harvested by centrifugation (Beckman rotor 8.1000, 5000 rpm, 15 min, 4C). The pellet was resuspended in 20 mM Tris pH 7.5, 500 mM NaCl, 10 mM imidazole, 5 mM β-mercaptoethanol, 0.1 mg/mL 4-(2-aminoethyl) benzenesulfonyl fluoride hydrochloride (AEBSF), 1 μg/mL leupeptine, 50 μg/mL DNasel and 20 mM MgCl2. The cells were lysed using a French press (Constant Systems) at 20 kpsi and the cell debris was removed by centrifugation. The cell lysate was loaded on a Ni-sepharose FF HiLoad column (GE Healthcare), equilibrated in 20 mM Tris pH 7.5, 500 mM NaCl, 10 mM imidazole, 5 mM […]. The bound proteins were eluted using a linear gradient to 500 mM imidazole. Fractions containing the His-SUMO-Sushi1 protein were pooled and dialysed overnight to 20 mM Tris pH 7.5, 150 mM NaCl, while cleaving with 3C protease. The cleaved sample was loaded again on a Ni-sepharose FF HiLoad column, equilibrated in the same buffer. The FT, containing the Sushi1 protein, was concentrated and applied to a BioRad S100 16/60 size exclusion column, equilibrated in 50 mM KPi buffer pH 6.0, 50 mM NaCl.
(§1) The Sushi-1 protein was dialysed overnight to PBS buffer and diluted to 30 μM in the same buffer. The peptides were resuspended in PBS at a stock concentration of 3 mM and diluted further in the same buffer to 300 μM. ITC experiments were performed on a Microcal ITC200 device. Titrations comprised 26×1.5 μL injections of peptide into protein, with 90 s intervals. An initial injection of ligand (0.5 μL) was made and discarded during data analysis. The data were fitted to a single binding site model using the Microcal LLC ITC200. Original software provided by the manufacturer.

[2] = biological target: T2, HEK293 cells expressing the ectodomain of GABABR1a comprising SD1 (Homo sapiens, UniProt Q9UBS5); assay: Flow-cytometry cell-based binding assay, competition with biotinylated 9-mer; details: peptide at 100 μM, inhibition of biotin-9mer (10 μM) binding
T2 construct: HEK293 were transfected with plasmids encoding the ectodomain of GABABR1a (as in Rice et al., 2019); expressed in transfected cells; host or cells: HEK293
T2 sequence (Q9UBS5 20-591 limits assumed): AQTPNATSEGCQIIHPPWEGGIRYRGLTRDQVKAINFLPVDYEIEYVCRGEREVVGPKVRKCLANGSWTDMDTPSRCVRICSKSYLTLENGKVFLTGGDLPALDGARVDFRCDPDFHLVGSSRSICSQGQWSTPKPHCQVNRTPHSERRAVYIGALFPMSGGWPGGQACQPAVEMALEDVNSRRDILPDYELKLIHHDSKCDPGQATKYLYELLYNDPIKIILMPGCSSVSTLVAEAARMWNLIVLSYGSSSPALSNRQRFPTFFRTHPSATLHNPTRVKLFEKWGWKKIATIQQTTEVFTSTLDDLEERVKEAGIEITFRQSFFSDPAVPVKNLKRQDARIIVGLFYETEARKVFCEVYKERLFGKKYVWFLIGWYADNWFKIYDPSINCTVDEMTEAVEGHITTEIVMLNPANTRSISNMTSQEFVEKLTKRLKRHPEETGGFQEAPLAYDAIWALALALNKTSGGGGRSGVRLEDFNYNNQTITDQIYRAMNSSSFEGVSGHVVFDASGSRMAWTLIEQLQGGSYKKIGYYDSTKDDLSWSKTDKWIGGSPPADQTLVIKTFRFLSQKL
Method: HEK cells expressing GABABR1a-SD1 were incubated with peptides of the application and the binding of 9-mer in the presence of the peptides was measured. The 9-mer peptide is biotinylated and detected with a commercial antibody.
Next, the top ranking compounds were tested in a cell-based binding assay. HEK293 cells were transformed to express the ectodomain of GABABR1a comprising SD1. In this cell-based assay, SD1 is expressed on the GABABR1a ectodomain and can adopt a more physiological conformation, compared to the purified SD1 protein used in the primary assay (FP assay).
HEK293 were transfected with plasmids encoding the ectodomain of GABABR1a (as in Rice et al., 2019), carrying a His-tag at the N-terminal. After 24 h of expression, cells were harvested and adjusted to a concentration of 1×10^6 cells/mL in ice-cold 2% FBS/PBS. Incubation with each peptide (in dose-response curve) was carried out at 4° C. for 1 h, followed by incubation with the biotion-9mer (10 μM) peptide during 30 min. Detection antibodies recognizing either His protein or biotin were added for a period of 30 min. The assay plate containing the cells was loaded into the Attune NxT Cytometer, parameters were adjusted accordingly with the cell type and signal intensity. In each experiment, positive and negative control were added to the plate.

[3] = biological target: T3, GABABR1a-SD1 (SD1-FITC-9mer complex) (Homo sapiens, UniProt Q9UBS5); assay: Fluorescence polarization (FP) competition assay with FITC-9mer; type: binding; details: peptide at 50 μM; inhibition of FITC-9mer binding to SD1
T3 construct: The synthetic gene encoding for residues 26-96 of the Sushi1 protein was cloned into a pFloat-SUMO vector; His-SUMO (with 3C protease site) (N, cleaved yes); made in house; host or cells: E. coli BL21(DE3)
T3 sequence (Q9UBS5 26-96, one chain of several): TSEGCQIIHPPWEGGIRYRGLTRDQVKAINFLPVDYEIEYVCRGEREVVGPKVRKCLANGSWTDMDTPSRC
Method: Intrigued by the surprising results of the 5-mer, it was decided to set up a medium- to high-throughput screen to optimize the 5-mer sequence. Several assays were tested to find a reproducible, robust and cost-effective assay that is also suitable for high-throughput screening. A fluorescence polarization (FP) assay was selected. FP measurements are well-known for receptor binding assays. The assay is based on the rotational movement of fluorescently labelled molecules in solution. […] The FP assay was optimized using the FITC labelled sAPP 9-mer (FIG. 1).
To screen for GABABR1a binders using unlabelled test compounds, the assay was turned into a competition assay using FITC-9mer. […] To validate this inhibitor assay, the IC50 values were determined of the 17-mer, 9-mer, 5-mer as well as those from 3 negative controls: 10-mer, scrambled 17-mer and a scrambled 9-mer (FIG. 2).
To determine if the peptides of this application were able to disrupt the SD1-9-mer complex, each peptide (in single point or dose-response curve) tested was incubate with SD1 protein for 1 h at RT. After this initially incubation, FITC-9mer was added to the previous mix and incubated during 2 h at RT. The signal intensity was measure in an appropriate plate reader using the following settings: Number of flashes per well: 200; Excitation: F482-16; Dichroic filter: FLP 504; Emission A F530-40; Gain A: 738, Gain B: 736. The assay was conducted in a 384-well plate.

[4] = test system: acute mouse hippocampal slices, CA3-CA1 Schaffer collateral (SC) synapses; assay: Ex vivo fEPSP short-term facilitation in acute hippocampal slices (multi-electrode array); type: cell-based
Method: The effect of a selection of GABABR1a-SD1 binders on synaptic transmission was tested in an ex vivo experiment using acute mouse hippocampal slices comprising an intact circuit of CA3-CA1 Schaffer collateral (SC) synapses. In short, a burst of 5 stimuli at 20 Hz was applied to Schaffer collaterals to induce short-term facilitation, which inversely correlates with the probability of neurotransmitter release.
Recordings were done in C57BL/6J mice (2 months old). For tissue preparation, mice were anesthetized with isoflurane and rapidly decapitated to prepare acute 300 μm-thick parasagittal brain slices on a Leica VT1200 vibratome. Slicing was performed in cold sucrose based cutting solution (ACSF) that consisted of (in mM): 87 NaCl, 2.5 KCl, 1.25 NaH2PO4, 10 glucose, 25 NaHCO3, 0.5 CaCl2, 7 MgCl2, 75 sucrose, 1 kynurenic acid, 5 ascorbic acid, 3 pyruvic acid (pH 7.4 with 5% CO2/95% O2). Slices were allowed to recover at 34° C. for 35 min, and subsequently maintained at room temperature for at least 30 min before use. Before recordings, slices were preincubated in artificial cerebrospinal fluid (ACSF, 119 mM NaCl, 2.5 mM KCl, 1 mM NaH2PO4, 11 mM glucose, 26 mM NaHCO3, 4 mM MgCl2 and 4 mM CaCl2, pH 7.4) containing peptide of interest or scrambled/control peptide (1 or 10 uM). Preincubation was performed in the multielectrode array recording chamber (60MEA200/30iR-Ti-gr, Multichannel Systems) for 60 min at 32° C., using custom-made local carbogenation rings (5% CO2/95% 02). Field excitatory post-synaptic potentials (fEPSPs) were recorded from Schaffer collateral-CA1 synapses by stimulating and recording from the appropriate (visually identified) electrodes (MEA-2100, Multichannel Systems). Input-output curves were recorded for each slice by applying single-stimuli ranging from 500 to 2750 mV with 250 mV increments. […] Train stimulations of 10, 20 and 50 Hz (5 stimuli per train) were recorded with 10 minutes intervals. Recordings were processed and analysed using Multi Channel Experimenter software (Multi Channel Systems).

[5] = biological target: T4, Sushi domain 1 of the human GABA B1a receptor (human, UniProt Q9UBS5 26-96); assay: ITC
T4 construct: Purified recombinant protein from E. coli; also called SD1; GABABR1a-SD1
T4 sequence (Q9UBS5 26-96 limits assumed): as the sequence (Q9UBS5 26-96, one chain of several) above
Method: In the mutagenesis experiment of Example 1 we also included an 8-mer lacking position 9.
as §1, with “ITC₂₀₀.” for “ITC200.”

Question: Which Kd [1] does the source give for `CC(C)[C@H](NC(=O)[C@H](CC(=O)O)NC(=O)[C@@H](CO)NC(=O)[C@@H](CC(=O)O)NC(=O)[C@H](N)CC(=O)O)C(=O)N[C@@H](Cc1c[nH]c2ccccc12)C(=O)N[C@@H](Cc1c[nH]c2ccccc12)C(=O)NCC(=O)NCC(=O)O` [VIB_P07, {D-ASP}{D-ASP}{D-SER}DVWWGG] (H-[dD][dD][dS]DVWWGG-OH; N-terminus and C-terminus assumed) here?
Answer: The Kd was 11 µM.

Question: “VIB-0068911: non-natural 5-mer d-I-F72-W-S; d = D-aspartate, F72 = (isoethylmethyl)benzene ([dD]I[F72]WS; not fully specified; printed as d-I-F72-W-S; reading uncertain)” was tested. Which “ITC Kd” value [1] did it give?
Answer: Its value is “bound as good as the 17-mer”.

Question: For `CC(C)[C@H](NC(=O)[C@H](CC(=O)O)NC(=O)[C@H](CO)NC(=O)[C@@H](CC(=O)O)NC(=O)[C@@H](N)CC(=O)O)C(=O)N[C@@H](Cc1c[nH]c2ccccc12)C(=O)N[C@@H](Cc1c[nH]c2ccccc12)C(=O)NCC(=O)NCC(=O)O` [VIB_P09, D{D-ASP}SDVWWGG] (H-D[dD]SDVWWGG-OH; N-terminus and C-terminus assumed), which Kd [1] is on record?
Answer: The Kd was 11 µM.

Question: What does the source list for `CC[C@H](C)[C@H](NC(=O)[C@H](N)CC(=O)O)C(=O)N[C@@H](Cc1c[nH]c2cc(Cl)ccc12)C(=O)N[C@@H](Cc1c[nH]c2ccccc12)C(=O)N[C@@H](CO)C(=O)O` [VIB-0068894]?
Answer: inhibition at 100 µM [2]: 84.2%; inhibition at 50 µM [3]: 96.8%; ITC Kd [1]: bound as good as the 17-mer

Question: How did the Kd [1] turn out when DDSDVWWG [VIB_P20, DDSDVWWG] was run?
Answer: The Kd was 1.95 µM.

Question: What does the source list for `CC[C@H](C)[C@H](NC(=O)[C@H](N)CC(=O)O)C(=O)N[C@@H](CCC1CCCCC1)C(=O)N[C@@H](Cc1c[nH]c2ccccc12)C(=O)N[C@@H](CO)C(=O)O` [VIB-0068903] (H-[dD]I[hCha]WS-OH; N-terminus and C-terminus assumed)?
Answer: inhibition at 100 µM [2]: 76%; inhibition at 50 µM [3]: 93.9%

Question: How did the “Ex vivo assay 1 μM (short-term facilitation)” value ([4]; peptide 1 μM, vs scrambled control peptide, burst of 5 stimuli at 20 Hz, listed as sAPP 17-mer) turn out when “DDSDVWWGGADTDYADG [Peptide 17-mer, DDSDVWWGGADTDYADG]” was run?
Answer: Its value is “increased the facilitation”.

Question: What about the “Increase in facilitation after preincubation with GABABR antagonist CGP-54626” value ([4]; peptide 1 μM, CGP-54626 10 μM preincubation) of the same molecule?
Answer: The value was “blocked”.

Question: What about the “Ex vivo assay 10 μM (short-term facilitation)” value ([4]; peptide 10 μM, vs scrambled negative control at 10 μM) of the same molecule?
Answer: The value was “statistically significant increase in short-term facilitation”.

Question: Does ADSAVWWGG [VIB_P05] bind [5]?
Answer: Result: binds

Question: Does DDSDVWAGG [VIB_P18] bind [5]?
Answer: Result: binds

Question: Does DDSDVAWGG [VIB_P17] bind [5]?
Answer: Result: binds

Question: Does DDSDAWWGG [VIB_P16] bind [5]?
Answer: Result: binds
